How the values were obtained:
[1] = system: MES-induced seizures; test: Maximal electroshock-induced seizure (MES) test; assay type: in vivo, male Swiss albino mice; details: for Minimum active dose (mg/kg) MES 0.5 h / Minimum active dose (mg/kg) MES 4 h: oral, lowest dose active in half or more of the mice, n = 6;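 for % protection MES 0.5 h: percent reduction of the test group versus the control group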;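 for % protection MES 4 h: percent reduction of the test group versus the control group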
[2] = system: PTZ-induced seizures; test: Subcutaneous pentylenetetrazole (sc-PTZ) test; assay type: in vivo, male Swiss albino mice; details: for Minimum active dose (mg/kg) Sc-PTZ 0.5 h / Minimum active dose (mg/kg) Sc-PTZ 4 h: oral, lowest dose active in half or more of the mice, n = 6;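 for % protection Sc-PTZ 0.5 h: percent reduction of the test group versus the control group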;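 for % protection Sc-PTZ 4 h: percent reduction of the test group versus the control group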
[3] = system: mice; test: Rotarod neurotoxicity screening; assay type: in vivo, male Swiss albino mice; details: for Neurotoxicity dose (mg/kg) 0.5 h / Neurotoxicity dose (mg/kg) 4 h: rotarod, oral doses 30, 100, 300 mg/kg
Method: The rotarod test, as described in the literature, was used to evaluate neurotoxicity (NT) in mice. In brief, six mice (one group) were trained to balance on a spinning rod (3 cm diameter and 6 rpm speed) to familiarize with the rotarod apparatus (Orchid Scientific, India). Each mouse underwent three trials to remain on the rotating rod for over 1 minute, with the experiment’s cutoff time (180 s) remaining constant. Different pre-oral (p.o.) doses of test and standard substances were administered to the trained animals.

[4] = system: induced seizures; test: Anticonvulsant screening (MES and sc-PTZ), outcome recovery/death
Method: The test compounds and the standard drugs were dissolved in a 0.9% NaCl solution.
After half an hour of p.o. administration of the standard and the tested compounds, an electro-convulsometer (Outus, Ambala Cantt, India) delivered an electrical stimulus of sufficient intensity (25 mA, 500 V, 50 Hz, 0.2 s) via auricular electrodes to induce maximal seizures (Figure 1). To avoid the animal’s death, a drop of 0.9% saline was injected into the eye before the insertion of the electrodes. The tonic hind limb extension (i.e., the hind limbs of the animals outstretched 180° to the plane of the body axis) served as the basic principle for the occurrence of seizure activity. Abolition of the hind limb tonic extensor (HLTE) component of the seizure is defined as protection.

[5] = target: T1, human carbonic anhydrase IX (Homo sapiens, UniProt Q16790); test: Human carbonic anhydrase IX colorimetric (p-nitrophenyl acetate) inhibition assay; assay type: biochemical; details: mean ± SEM, three independent experiments in triplicate; read-out: CA IX (IC50)
T1 construct: purchased Sino Biological Inc, Beijing, China
Method: In brief, the reaction mixture contained 60 μL of 50 mM Tris-sulfate buffer (pH 7.6, containing 0.1 mM ZnCl2),10 μL (0.5 mM) of the test compound in 1% DMSO, and 10 μL of human carbonic anhydrase II and IX (Sino Biological Inc, Beijing, China). All the ingredients were mixed well and pre-incubated at 25°C for 10 min. Substrate p-nitrophenyl acetate was prepared as a 6 mM stock solution using 5% of acetonitrile in buffer and was used fresh. […] The total assay volume was adjusted to 100 μL and further incubated at 37°C for 30 min. Furthermore, all the ingredients were mixed properly, and absorbance was measured. […] The results reported are the mean of triplicate experiments (±SEM) and expressed IC50 values, which were calculated.

Row | Structure (SMILES) | % protection MES 0.5 h ([1]; 100 mg/kg oral) [%] | % protection MES 4 h ([1]; 100 mg/kg oral) [%] | Minimum active dose (mg/kg) MES 0.5 h [1] [mg/kg] | Minimum active dose (mg/kg) MES 4 h [1] [mg/kg] | % protection Sc-PTZ 0.5 h ([2]; 100 mg/kg oral) [%] | % protection Sc-PTZ 4 h ([2]; 100 mg/kg oral) [%] | Minimum active dose (mg/kg) Sc-PTZ 0.5 h [2] | Minimum active dose (mg/kg) Sc-PTZ 4 h [2] [mg/kg] | Neurotoxicity (rotarod test), result in words ([3]; at the highest dose (300 mg/kg)) | Neurotoxicity dose (mg/kg) 0.5 h [3] | Neurotoxicity dose (mg/kg) 4 h [3] | Recovery/death ([4]; 100 mg/kg oral) | IC50 [5] [nM] | % protection MES 0.5 h ([1]; 300 mg/kg oral) [%] | % protection MES 4 h ([1]; 300 mg/kg oral) [%] | % protection Sc-PTZ 4 h ([2]; 300 mg/kg oral) [%] | Recovery/death ([4]; 30 mg/kg oral) | Recovery/death ([4]; 300 mg/kg oral) | % protection Sc-PTZ 0.5 h ([2]; 300 mg/kg oral) [%]
1 | CC(=O)Nc1nnc(S(N)(=O)=O)s1 [Acetazolamide, reference compound] | 66.15 | 58.46 | 100 | 100 | 73.13 | 58.46 | 100 mg/kg | 100 | no neurotoxicity | - (The indication - (dash) denotes a lack of action at the maximum dose supplied (300 mg/kg)) | - (The indication - (dash) denotes a lack of action at the maximum dose supplied (300 mg/kg)) | Recovery |  |  |  |  |  |  | 
2 | O=C(Nc1nncs1)c1cccc(OCCN2CCOCC2)c1 [Compound 6a, 3-(2-morpholinoethoxy)-N-(1,3,4-thiadiazol-2-yl)benzamide] | 18.46 |  | 100 | 300 |  |  | - (The indication - (dash) denotes a lack of action at the maximum dose supplied (300 mg/kg)) | 300 |  | - (The indication - (dash) denotes a lack of action at the maximum dose supplied (300 mg/kg)) | - (The indication - (dash) denotes a lack of action at the maximum dose supplied (300 mg/kg)) | Recovery | 400 ± 50 | 30.76 | 43.07 | 19.08 | Recovery | Recovery | 
3 | O=C(Nc1nncs1)c1cccc(OCCN2CCCCC2)c1 [Compound 6b, 3-(2-(piperidin-1-yl)ethoxy)-N-(1,3,4-thiadiazol-2-yl)benzamide] | 30.76 |  | 100 | 300 |  |  | 300 mg/kg | 300 |  | - (The indication - (dash) denotes a lack of action at the maximum dose supplied (300 mg/kg)) | - (The indication - (dash) denotes a lack of action at the maximum dose supplied (300 mg/kg)) | Recovery | 230 ± 40 | 41.53 | 50.76 | 34.17 | Recovery | Recovery | 10.20
4 | O=C(Nc1nncs1)c1cccc(OCCN2CCCC2)c1 [Compound 6c, 3-(2-(pyrrolidin-1-yl)ethoxy)-N-(1,3,4-thiadiazol-2-yl)benzamide] | 26.15 | 35.38 | 100 | 100 | 33.81 |  | 100 mg/kg | 300 |  | - (The indication - (dash) denotes a lack of action at the maximum dose supplied (300 mg/kg)) | - (The indication - (dash) denotes a lack of action at the maximum dose supplied (300 mg/kg)) | Recovery | 470 ± 20 | 38.46 | 46.13 | 40.21 | Recovery | Recovery | 29.26

From paper PMC11861159, “Design, synthesis, and in vitro, in vivo, and in silico evaluation of novel substituted 1,3,4-thiadiazole derivatives as anticonvulsant agents” (Frontiers in Chemistry, 2025)
